# Literature values in patent publication US20120251478A1, “Method for treatment of a glomerular disease comprising administration of anion exchange resin” (priority 2006, published 2012).
# System: apparent albuminuria
# Settings: reports, nonpatent reference 2
smiles,measurement,value
COc1ccc(Cl)cc1C(=O)NCCc1ccc(S(=O)(=O)NC(=O)NC2CCCCC2)cc1 [glibenclamide],apparent albuminuria,not ameliorated
